The target of one assay is c-Met enzyme (Homo sapiens (Human), UniProt P08581). In words: c-Met kinase inhibitory activity (DELFIA time-resolved fluorescence). It counts as biochemical. Conditions: c-Met kinase activity reduced to 50%. How it is done:
The c-Met kinase inhibitory activity was analyzed using dissociation enhanced lanthanide fluoro-immunoassay (DELFIA, Perkin Elmer), which is a kind of time-resolved fluorescence (TRF). […] of the compound prepared in the present invention, as a test compound, was put in a Greiner 96-well V-shaped bottom plate, and a tyrosin kinase buffer ([…]) mixed with a c-Met enzyme was added thereto, and then the enzyme and the test compound were stirred for 15 minutes, followed by culturing. An ATP solution ([…]) was added thereto to proceed with a kinase reaction at room temperature for 30 minutes, and then a 50 mM […] solution (EDTA, […]) was added to stop the reaction. After that, the reaction mixture was transferred to a plate coated with Streptavidin, followed by culturing under shaking. After 2 hours, the cultured material was washed three times with a PBS-T buffer (PBS 0.05% Tween 20).
The europium-labeled anti-phosphotyrosine antibody was diluted to 1:[…] of the diluent was added per well, followed by culturing under shaking. After 1 hour, the cultured material was washed three times with a PBS-T buffer (PBS 0.05% Tween 20).

The test system of assay [1] is gastric cancer cell line Hs746T. In words: Cancer cell proliferation inhibitory test (SRB or MTS assay, 72 hours). In kind it is cell-based. The conditions noted are these: Homo sapiens, cancer cell (Hs746T) proliferation inhibition, culturing with compound for 72 hours. On the procedure:
The drug used in the test was diluted to a desired concentration as a test medium, and the final concentration of dimethyl sulfoxide was 0.5% or less.
All the cancer cell lines used in the test originated from the human body, and gastric cancer cell lines Hs746T and MKN-45 were used.
5×10^3 cells of Hs746T were dispensed to each well of the 96-well flat bottom micro-plate. MKN-45 was dispensed at 1×10^4 cells. The cells were cultured for 24 hours, so that the cells adhered to the bottom, and then the culture liquid was removed. The culture liquid containing each of the compounds of the present invention was added, followed by culturing for 72 hours. After the culturing with the compound was completed, the cytotoxicity was measured using protein stain reagent SRB or MTS assay.
Specifically, after the culturing with the compound of the present invention was completed, the cultured liquid was removed. Each well was treated with a cool TCA solution, and allowed to stand at 4° C. for 1 hour to fix cells. The TCA solution was removed, followed by drying at room temperature, and then a stain solution containing 0.4% SRB dissolved in 1% acetic acid solution was added, and then the mixture was allowed to stand for 30 minutes to stain cells. […] The absorbance of each well was measured at a wavelength range of 520 nm using an Eliza reader (micro-plate reader).
The drug cytotoxicity was measured from the OD values for the well added without the drug (C), each well added with the drug (T), and the well initially added with the drug (Tz): [(T−Tz)/(C−Tz)]×100 for […]; or [(T−Tz)/(Tz)]×100 for Tz>T.
The cancer cell inhibitory activity measurement using MTS assay was conducted as follows. Specifically, after the culturing with the compound of the present invention was completed, the PMS solution and MTS solution constituting the CellTiter 96® AQueous Non-Radioactive Cell Proliferation Assay product from Promega Co. were mixed, and 20 μL was put into each well. After the cells were placed in an incubator for 4 hours, and then taken out and allowed to stand at room temperature for 10 minutes.

Counter-ions that a name gives are not always drawn.

Sequence of c-Met enzyme (P08581 25-1390): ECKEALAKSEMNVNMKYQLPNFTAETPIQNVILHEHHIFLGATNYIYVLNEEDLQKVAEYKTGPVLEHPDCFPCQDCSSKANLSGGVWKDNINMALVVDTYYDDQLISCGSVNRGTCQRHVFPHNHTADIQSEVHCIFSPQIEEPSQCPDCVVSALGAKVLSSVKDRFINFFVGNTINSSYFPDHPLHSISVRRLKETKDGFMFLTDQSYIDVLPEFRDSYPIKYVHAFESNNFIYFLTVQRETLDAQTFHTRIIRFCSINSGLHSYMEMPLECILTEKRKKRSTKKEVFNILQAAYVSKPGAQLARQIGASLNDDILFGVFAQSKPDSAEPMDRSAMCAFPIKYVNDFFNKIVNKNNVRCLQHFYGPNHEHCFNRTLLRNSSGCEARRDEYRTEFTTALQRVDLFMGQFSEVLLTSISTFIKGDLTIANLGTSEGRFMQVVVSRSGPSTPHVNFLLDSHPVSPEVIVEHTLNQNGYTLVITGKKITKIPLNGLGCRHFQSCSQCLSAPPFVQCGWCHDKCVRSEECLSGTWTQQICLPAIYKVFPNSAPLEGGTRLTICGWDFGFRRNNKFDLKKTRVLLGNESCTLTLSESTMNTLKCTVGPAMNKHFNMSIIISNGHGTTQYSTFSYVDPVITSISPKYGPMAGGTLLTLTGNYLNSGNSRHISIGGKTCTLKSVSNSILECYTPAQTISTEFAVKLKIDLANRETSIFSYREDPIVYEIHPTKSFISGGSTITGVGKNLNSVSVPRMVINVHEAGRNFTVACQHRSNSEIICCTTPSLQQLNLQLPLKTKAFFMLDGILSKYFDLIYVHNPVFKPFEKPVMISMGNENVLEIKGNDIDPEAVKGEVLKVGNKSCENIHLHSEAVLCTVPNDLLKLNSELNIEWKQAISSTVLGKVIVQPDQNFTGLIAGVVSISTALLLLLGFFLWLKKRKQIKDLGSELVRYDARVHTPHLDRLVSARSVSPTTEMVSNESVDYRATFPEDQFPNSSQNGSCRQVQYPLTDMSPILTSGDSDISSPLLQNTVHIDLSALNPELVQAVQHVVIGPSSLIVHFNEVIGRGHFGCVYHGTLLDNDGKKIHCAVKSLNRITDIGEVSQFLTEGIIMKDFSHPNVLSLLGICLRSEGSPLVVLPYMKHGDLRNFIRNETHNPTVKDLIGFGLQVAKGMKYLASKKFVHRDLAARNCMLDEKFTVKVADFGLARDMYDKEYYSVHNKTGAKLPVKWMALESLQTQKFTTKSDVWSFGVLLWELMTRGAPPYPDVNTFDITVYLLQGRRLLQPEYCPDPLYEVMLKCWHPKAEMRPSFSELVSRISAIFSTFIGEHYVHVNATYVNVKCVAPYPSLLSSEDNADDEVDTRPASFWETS

`Cn1cc(-c2cnc3nnn(C[C@@H]4CN(c5ncc(-c6ccc(CN7CCOCC7)c(F)c6)cn5)CCO4)c3n2)cn1` [Chemical formula 42, (S)-4-(5-(3-fluoro-4-(morpholinomethyl)phenyl)pyrimidin-2-yl)-2-((6-(1-methyl-1H-pyrazol-4-yl)-1H-[1,2,3]triazolo[4,5-b]pyrazin-1-yl)methyl)morpholine] had an IC50 on c-Met enzyme of 4 nM.

In the case of `N#Cc1cc(-c2cnc3nnn(C[C@@H]4CN(c5ncc(C6=CCN(CCO)CC6)cn5)CCO4)c3n2)ccc1F` [Chemical formula 38, (S)-2-fluoro-5-(1-((4-(5-(1-(2-hydroxyethyl)-1,2,3,6-tetrahydropyridin-4-yl)pyrimidin-2-yl)morpholine-2-yl)methyl)-1H-[1,2,3]triazolo[4,5-b]pyrazin-6-yl)benzonitrile], inhibition on c-Met enzyme was half-maximal at 3 nM (IC50). Regarding `Cn1cc(-c2cnc3nnn(C[C@@H]4CN(c5ncc(-c6cnn(C7CCN(CCO)CC7)c6)cn5)CCO4)c3n2)cn1` [Chemical formula 8, (S)-2-(4-(4-(2-(2-((6-(1-methyl-1H-pyrazol-4-yl)-1H-[1,2,3]triazolo[4,5-b]pyrazin-1-yl)methyl)morpholino)pyrimidin-5-yl)-1H-pyrazol-1-yl)piperidin-1-yl)ethanol], the results for the IC50 (on c-Met enzyme; in assay [1]) were 4 nM and 0.14 nM, respectively.

For the compound `N#Cc1cccc(-c2cnc3nnn(C[C@@H]4CN(c5ncc(-c6cnn(CCO)c6)cn5)CCO4)c3n2)c1` [Chemical formula 31, (S)-3-(1-((4-(5-(1-(2-hydroxyethyl)-1H-pyrazol-4-yl)pyrimidin-2-yl)morpholin-2-yl)methyl)-1H-[1,2,3]triazolo[4,5-b]pyrazin-6-yl)benzonitrile], the figures for the IC50 (against c-Met enzyme; in assay [1]) were 2 nM and 0.18 nM, respectively. The like results for `Cn1cc(-c2cnc3nnn(CC4CCCN(c5ncc(C6=CCNCC6)cn5)C4)c3n2)cn1` (stereo not shown) [Chemical formula 33, 6-(1-methyl-1H-pyrazol-4-yl)-1-((1-(5-(1,2,3,6-tetrahydropyridin-4-yl)pyrimidin-2-yl)piperidin-3-yl)methyl)-1H-[1,2,3]triazolo[4,5-b]pyrazinehydrochloride] were, in that order, 3 nM and 9.5 nM. Regarding `CN1CCN(CCOc2ccc(-c3cnc(N4CCO[C@H](Cn5nnc6ncc(-c7cnn(C)c7)nc65)C4)nc3)cc2)CC1` [Chemical formula 15, (S)-2-((6-(1-methyl-1H-pyrazol-4-yl)-1H-[1,2,3]triazolo[4,5-b]pyrazin-1-yl)methyl)-4-(5-(4-(2-(4-methylpiperazin-1-yl)ethoxy)phenyl)pyrimidin-2-yl)morpholine], it took 6 nM to reach half-maximal inhibition on c-Met enzyme (IC50). Regarding `Cn1cc(-c2cnc3nnn(C[C@@H]4CN(c5ncc(OCCN6CCOCC6)cn5)CCO4)c3n2)cn1` [Chemical formula 16, (S)-2-((6-(1-methyl-1H-pyrazol-4-yl)-1H-[1,2,3]triazolo[4,5-b]pyrazin-1-yl)methyl)-4-(5-(2-morpholinoethoxy)pyrimidin-2-yl)morpholine], in assay [1], the IC50 is 2.1 nM.

The compound `CN1CCN(Cc2ccc(-c3cnc(N4CCO[C@H](Cn5nnc6ncc(-c7cccc(C#N)c7)nc65)C4)nc3)cc2)CC1` [Chemical formula 49, (S)-3-(1-((4-(5-(4-((4-methylpiperazin-1-yl)methyl)phenyl)pyrimidin-2-yl)morpholin-2-yl)methyl)-1H-[1,2,3]triazolo[4,5-b]pyrazin-6-yl)benzonitrile] came in with an IC50 against c-Met enzyme of 8 nM. In the case of `CN1CCN(Cc2ccc(-c3cnc(N4CCO[C@H](Cn5nnc6ncc(-c7ccc(F)c(C#N)c7)nc65)C4)nc3)cc2F)CC1` [Chemical formula 39, (S)-2-fluoro-5-(1-((4-(5-(3-fluoro-4-((4-methylpiperazin-1-yl)methyl)phenyl)pyrimidin-2-yl)morpholine-2-yl)methyl)-1H-[1,2,3]triazolo[4,5-b]pyrazin-6-yl)benzonitrile], at c-Met enzyme, the IC50 came to 2 nM. As for `CN1CCC(n2cc(-c3cnc(N4CCO[C@H](Cn5nnc6ncc(-c7cnn(C)c7)nc65)C4)nc3)cn2)CC1` [Chemical formula 7, (S)-2-((6-(1-methyl-1H-pyrazol-4-yl)-1H-[1,2,3]triazolo[4,5-b]pyrazin-1-yl)methyl)-4-(5-(1-(1-methylpiperidin-4-yl)-1H-pyrazol-4-yl)pyrimidin-2-yl)morpholine], the IC50 at c-Met enzyme was determined as 6 nM; in assay [1] it was 0.11 nM.

Regarding `CN1CC=C(c2cnc(N3CCO[C@H](Cn4nnc5ncc(-c6cnn(C)c6)nc54)C3)nc2)CC1` [Chemical formula 10, (S)-4-(5-(1-methyl-1,2,3,6-tetrahydropyridin-4-yl)pyrimidin-2-yl)-2-((6-(1-methyl-1H-pyrazol-4-yl)-1H-[1,2,3]triazolo[4,5-b]pyrazin-1-yl)methyl)morpholine], the IC50 on c-Met enzyme was 4 nM; in assay [1] it was 1.1 nM. The like results for `Cn1cc(-c2cnc3nnn(C[C@@H]4CN(c5ncc(-c6ccc(CN7CCOCC7)cc6)cn5)CCO4)c3n2)cn1` [Chemical formula 18, (S)-2-((6-(1-methyl-1H-pyrazol-4-yl)-1H-[1,2,3]triazolo[4,5-b]pyrazin-1-yl)methyl)-4-(5-(4-(morpholinomethyl)phenyl)pyrimidin-2-yl)morpholine] were, in that order, 5 nM and 9.6 nM. With `Cn1cc(-c2cnc3nnn(C[C@@H]4CN(c5ncc(-c6ccc(OCCN7CCOCC7)c(F)c6)cn5)CCO4)c3n2)cn1` [Chemical formula 13, (S)-4-(5-(3-fluoro-4-(2-morpholinoethoxy)phenyl)pyrimidin-2-yl)-2-((6-(1-methyl-1H-pyrazol-4-yl)-1H-[1,2,3]triazolo[4,5-b]pyrazin-1-yl)methyl)morpholine], the IC50 against c-Met enzyme was 15 nM; in assay [1] it was 0.86 nM.

For the compound `Cn1cc(-c2cnc3nnn(C[C@@H]4CN(c5ncc(C6=CCNCC6)cn5)CCO4)c3n2)cn1` [Chemical formula 9, (S)-2-((6-(1-methyl-1H-pyrazol-4-yl)-1H-[1,2,3]triazolo[4,5-b]pyrazin-1-yl)methyl)-4-(5-(1,2,3,6-tetrahydropyridin-4-yl)pyrimidin-2-yl)morpholine hydrochloride], the IC50 came to 3 nM on c-Met enzyme and 0.95 nM in assay [1]. `N#Cc1cc(-c2cnc3nnn(C[C@@H]4CN(c5ncc(C6=CCNCC6)cn5)CCO4)c3n2)ccc1F` [Chemical formula 30, (S)-2-fluoro-5-(1-((4-(5-(1,2,3,6-tetrahydropyridin-4-yl)pyrimidin-2-yl)morpholine-2-yl)methyl)-1H-[1,2,3]triazolo[4,5-b]pyrazin-6-yl)benzonitrile]: the IC50 stood at 2 nM at c-Met enzyme and 0.11 nM in assay [1].

At c-Met enzyme, `CN1CCN(C(=O)c2ccc(-c3cnc(N4CCC[C@H](Cn5nnc6ncc(-c7cnn(C)c7)nc65)C4)nc3)cc2)CC1` [Chemical formula 48, (S)-(4-(2-(3-((6-(1-methyl-1H-pyrazol-4-yl)-1H-[1,2,3]triazolo[4,5-b]pyrazin-1-yl)methyl)piperidin-1-yl)pyrimidin-5-yl)phenyl)(4-methylpiperazin-1-yl)methanone] returned an IC50 of 6 nM.

Turning to `CC(=O)N1CCN(Cc2ccc(-c3cnc(N4CCO[C@H](Cn5nnc6ncc(-c7cnn(C)c7)nc65)C4)nc3)cc2)CC1` [Chemical formula 45, (S)-1-(4-(4-(2-(2-((6-(1-methyl-1H-pyrazol-4-yl)-1H-[1,2,3]triazolo[4,5-b]pyrazin-1-yl)methyl)morpholino)pyrimidin-5-yl)benzyl)piperazin-1-yl)ethanone], it took 8 nM to reach half-maximal inhibition against c-Met enzyme (IC50).

On c-Met enzyme, `CN1CCN(C(=O)c2ccc(-c3cnc(N4CCO[C@H](Cn5nnc6ncc(-c7cnn(C)c7)nc65)C4)nc3)cc2)CC1` [Chemical formula 47, (S)-(4-(2-(2-((6-(1-methyl-1H-pyrazol-4-yl)-1H-[1,2,3]triazolo[4,5-b]pyrazin-1-yl)methyl)morpholino)pyrimidin-5-yl)phenyl)(4-methylpiperazin-1-yl) methanone] gave an IC50 of 13 nM. The same measure, in the same setting: under `CN1CCN(Cc2ccc(-c3cnc(N4CCO[C@H](Cn5nnc6ncc(-c7cnn(C)c7)nc65)C4)nc3)cc2F)CC1` [Chemical formula 40, (S)-4-(5-(3-fluoro-4-((4-methylpiperazin-1-yl)methyl)phenyl)pyrimidin-2-yl)-2-((6-(1-methyl-1H-pyrazol-4-yl)-1H-[1,2,3]triazolo[4,5-b]pyrazin-1-yl)methyl)morpholine] stands 2 nM.
